Experimental findings from patent US20250339385A1, “TOPICAL FORMULATION OF DIMETHYLCURCUMIN” (ANNJI PHARMACEUTICAL CO., LTD., priority 2021, published 2025) are described below.

The data set is described as follows: Solubility of API (Formula I) in aqueous system / solvents. The data set is classed as physicochemical. On the procedure: When the API of Formula I is in the aqueous system, it forms crystals and precipitates out of solution. To investigate a compatible matrix that allows greater Formula I solubility, various systems containing Formula I were stored at room temperature for 24 hours and were examined under a polarized light microscope to observe the presence or absence of Formula I crystal precipitation.

As to dimethylcurcumin [Formula I], the “solubility of API in aqueous phase (aqueous system)” value (aqueous system) is “practically insoluble”. Moreover, where the note is “diethylene glycol monoethyl ether”, the “solubility of API in diethylene glycol monoethyl ether” value is given as “good solubility”.
